Residues, ends and D or L forms follow the SMILES beside them.
How the values were obtained:
MPO [1] = assay: MPO-mediated LDL oxidation (conjugated diene formation, absorbance at 234 nm); type: biochemical; conditions: for conjugated diene formation in the LDL solution: for more than 2 hours
Experimental: MPO-mediated oxidation of LDL. Reaction mixtures contained LDL (0.15 mg/ml), NaNO2 (100 µM), H2O2 (300 µM), MPO (20 nM) and various concentrations of KYC in a potassium phosphate buffer (100 mM, pH 7.4) containing DTPA (100 µM). LDL oxidation was monitored at 234 nm at room temperature on a HP UV/VIS spectrometer. Absorbance traces represent the average of duplicate experiments.
MPO-mediated LDL Oxidation. Reaction mixtures contained LDL (0.15 mg/mL), NaNO2 (100 µM), H2O2 (100 µM), MPO (20 nM) and increasing concentrations of KYC in a phosphate buffer (100 mM, pH 7.4) containing DTPA (100 µM). Rates of LDL oxidation were monitored at room temperature at 234 nm, the wavelength maximum for conjugated dienes.
MPO-mediated LDL Conjugated Diene Formation: Reaction mixtures contained LDL (0.15 mg/mL), NaNO2 (100 µM), H2O2 (100 µM), MPO (20 nM) and increasing concentrations of KYC or equimolar concentrations of various compounds in a phosphate buffer (100 mM, pH 7.4) containing DTPA (100 µM). Rates of LDL conjugated diene formation were determined by following changes in absorbance at 234 nm, the wavelength maximum for conjugated dienes, on a UV-Vis spectrophotometer (Agilent Model 8453) at room temperature.

MPO [2] = assay: MPO-mediated nitration of bovine serum albumin (western blot); type: biochemical; conditions: for MPO-mediated BSA nitration: H2O2 100 µM, nitrite 100 µM
Experimental: MPO-mediated Nitration of Bovine Serum Albumin (BSA). BSA (0.5 mg/mL) was incubated with MPO (20 nM), H2O2 (100 µM), nitrite (100 µM) and increasing concentrations of KYC in phosphate buffer (100 mM, pH 7.4) containing DTPA (100 µM) for 30 min. Reactions were stopped by addition of catalase. Nitrotyrosine formation was assessed by western blot analysis.
MPO-mediated Nitration of Bovine Serum Albumin (BSA): BSA (0.5 mg/mL) was incubated with MPO (20 nM), H2O2 (25 µM), NaNO2 (50 µM) and increasing concentrations of KYC in phosphate buffer (100 mM, pH 7.4) containing DTPA (100 µM) for 30 min. Reactions were halted by addition of catalase (2,000 units/mL). NO2Tyr formation was assessed by western blot analysis with an anti-NO2Tyr rabbit polyclonal antibody (EMD, Gibbstown, NJ).

MPO [3] = assay: MPO-mediated nitration of LDL (dot blot); type: biochemical; conditions: MPO/H2O2/NaNO2, 37 °C, 4 h
Experimental: MPO-mediated Nitration of LDL: LDL (0.5 mg/mL) was incubated with MPO (50 nM), H2O2 (50 µM), NaNO2 (50 µM) and increasing concentrations of KYC in phosphate buffer (100 mM, pH 7.4) containing DTPA (100 µM) at 37 °C for 4 h. Reactions were stopped by addition of catalase (2,000 units/mL). Formation of NO2Tyr was assessed by dot blot analysis. Briefly, LDL solutions were mixed with 1% SDS and centrifuged (12000 g, 15 min). Aliquots of supernatants were applied to a nitrocellulose membrane with a dot blot apparatus (Biorad model: Bio-Dot). The levels of NO2Tyr were visualized using a rabbit polyclonal anti-NO2Tyr antibody (EMD, Gibbstown, NJ) and the ECL plus kit from Thermo-Peirce (Rockford, IL).

SCD mice = assay: Immunofluorescence of aortas of SCD mice; type: in vivo; conditions: IP 0.3 mg/kg/d, three weeks; vs non-treated SCD mice
Experimental: Immunofluorescence Studies. In a separate study, SCD mice were treated with KYC (IP, 0.3 mg/kg/d). After three weeks treatment, mice were deeply anesthetized and euthanized by exsanguination. Thoracic and abdominal aortas were surgically removed and rinsed free of blood elements using ice cold PBS. Aortas were fixed, imbedded in paraffin, and sectioned.

[4] = test system: OVA-sensitized C57BL/6J mice; assay: OVA murine model of experimentally-induced asthma (lung histology); type: in vivo; conditions: 0.3 mg/kg every other day for 10 days
Excerpt: Murine Model of Experimentally-Induced Asthma. C57BL/6J mice (12-14 wk old) from Jackson Laboratory (Bar Harbor, ME) were housed in sterile autoclavable microisolation cages and fed standard laboratory mouse chow and water ad libitum. All protocols were approved by the Institutional Animal Care and Use Committee (IACUC) of the Medical College of Wisconsin.
C57BL/6J mice were divided into three groups; a control group (Control), an ovalbumin (OVA)-sensitized group and an OVA-sensitized group treated with KYC. OVA sensitization was achieved using a modification of a protocol previously described by de Siqueira et al^15 (Fig. 1). […] When mice inhale aerosolized OVA, robust allergic responses are routinely observed.
Briefly, on day one, mice were anesthetized (halothane; Halocarbon Laboratories, River Edge, NJ) and a heat-denatured OVA fragment (∼80 mg, 5 × 2 × 2 mm) was implanted subcutaneously in the dorsal aspect of the neck. The incision was closed with stainless steel clips and the mouse was allowed to recover. Implantation of the heat-denatured OVA fragment initiates sensitization. On day fifteen, the implanted mice were exposed to aerosolized OVA (6% in PBS) for 30 minutes every other day for ten days. Twenty-four hours after the last OVA challenge, the mice were deeply anesthetized (halothane), sacrificed by exsanguination and the lungs removed for analysis. […]

lung cancer mice = assay: BHT-treated lung cancer mice (BALF activities, tumor number); type: in vivo; conditions: BHT 300 mg/kg single dose; 0.3 mg/kg/d; after 3 days
Experimental: Inhibiting MPO decreases PMN degranulation in lung cancer mice. PMNs are considered to play a causal role in initiating tumor formation. Effects of KYC on PMN recruitment and tumor formation in lung cancer mice were determined. Briefly, mice were treated with BHT (single dose: 300 mg/kg) and KYC (0.3 mg/kg/d).

## CC(=O)N[C@@H](CCCCN)C(=O)N[C@@H](Cc1ccc(O)cc1)C(=O)N[C@@H](CS)C(N)=O [KYC, N-acetyl Lysyltyrosylcysteine amide] (Ac-Lys-Tyr-Cys-NH2)
MPO [1]; 4 µM, MPO/H2O2/nitrite, H2O2 300 µM, lag time without peptide 25 min
  lag time of conjugated diene formation: 90 min
MPO [1]; 4 µM, at the end of the 2 hour incubation, on the basis of absorbance values
  reduction of the rate of LDL oxidation: ~80%
MPO [1]; 20 µM, MPO/H2O2/nitrite, H2O2 300 µM
  conjugated diene formation in the LDL solution: totally suppresses
MPO [1]; 25 µM, H2O2 100 µM, NaNO2 100 µM, MPO 20 nM
  MPO/H2O2/nitrite-mediated LDL oxidation: completely suppressed
MPO [1]; 100 µM, MPO/H2O2/nitrite, H2O2 300 µM
  conjugated diene formation in the LDL solution: totally suppresses
MPO [2]; 30 µM
  MPO-mediated BSA nitration: inhibits
MPO [2]; 50 µM, H2O2 25 µM, NaNO2 50 µM
  NO2Tyr formation in BSA: essentially ablated
MPO [2]; 250 µM
  MPO-mediated BSA nitration: essentially ablates
MPO [3]
  NO2Tyr in LDL: markedly reduces
SCD mice
  MPO levels in the aortas: reduced
  chlorotyrosine levels in the aortas: reduced
[4]; H&E
  eosinophil infiltration in the lungs: markedly reduce eosinophil infiltration to essentially control levels
[4]; McLetchie trichrome
  collagen deposition in the lungs: markedly reduces collagen deposition to control levels
Lung cancer mice
  MPO activity in BALF: significantly decreased
  PMN number in BALF: did not reduce
  elastase activity in BALF: significantly decreased
